Our source for the relative viability values is the supplement of paper PMC10307832.

Common to all, as to assay: relative viability (nuclei count vs DMSO), 5 days (fraction); higher = more cells survive
Compound in the assay “Dasatinib + Lapatinib”: Cc1nc(Nc2ncc(C(=O)Nc3c(C)cccc3Cl)s2)cc(N2CCN(CCO)CC2)n1 [Dasatinib] + CS(=O)(=O)CCNCc1ccc(-c2ccc3ncnc(Nc4ccc(OCc5cccc(F)c5)c(Cl)c4)c3c2)o1 [Lapatinib] (partner 2 µM)
The gist of the method:
(§1)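 Cells from lung cancer lines were seeded into 1536-well plates and, one day later, dosed by pin tool. Treatments were either a single drug or a fixed dose of an anchor drug with five library-drug doses (not always all listed) in √10 steps. After 5 days, nuclei were stained in a one-step fixation (final 0.05% Triton X-100, 1% formaldehyde, 1 ug/ml Hoechst) and counted on 4× images, and relative viability is the treated-to-vehicle nuclei ratio, as the median of duplicate plates.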

Compound in the assay “XMD13-2 + Pictilisib”: C1CC1C(=O)NC2=NNC3=C2C=CC(=C3)C4=CC(=CC=C4)C(=O)NC5CC5 [XMD13-2] + CS(=O)(=O)N1CCN(Cc2cc3nc(-c4cccc5[nH]ncc45)nc(N4CCOCC4)c3s2)CC1 [Pictilisib] (partner 1 µM)
The gist of the method: as §1

Compound in the assay “ALW-II-49-7 + Crizotinib”: Cc1ccc(C(=O)Nc2cccc(C(F)(F)F)c2)cc1Nc1cncc(C(N)=O)c1 [ALW-II-49-7] + C[C@@H](Oc1cc(-c2cnn(C3CCNCC3)c2)cnc1N)c1c(Cl)ccc(F)c1Cl [Crizotinib] (partner 1 µM)
Summed up:
as §1

Compound in the assay “Dasatinib + OSI-027”: Cc1nc(Nc2ncc(C(=O)Nc3c(C)cccc3Cl)s2)cc(N2CCN(CCO)CC2)n1 [Dasatinib] + COc1cccc2cc(-c3nc([C@H]4CC[C@H](C(=O)O)CC4)n4ncnc(N)c34)[nH]c12 [OSI-027] (partner 0.5 µM)
Summed up: as §1

In the case of UMC-11, the relative viability with Dasatinib + Lapatinib (first compound 0.005 µM) stood at 0.877; in the assay with Dasatinib + Lapatinib (first compound 0.01581 µM), 0.702; with Dasatinib + Lapatinib (first compound 0.05 µM), 0.835; in the assay with Dasatinib + Lapatinib (first compound 0.1581 µM) it was 0.333; in the assay with Dasatinib + Lapatinib (first compound 0.5 µM) it was 0.377; with XMD13-2 + Pictilisib (first compound 0.05 µM) it was 0.943. Also, the relative viability with XMD13-2 + Pictilisib (first compound 0.1581 µM) was 0.8; in the assay with XMD13-2 + Pictilisib (first compound 0.5 µM), 0.704; with XMD13-2 + Pictilisib (first compound 1.581 µM) it was 0.803; in the assay with XMD13-2 + Pictilisib (first compound 5 µM), 0.71; with ALW-II-49-7 + Crizotinib (first compound 0.08 µM) it was 0.531; in the assay with ALW-II-49-7 + Crizotinib (first compound 0.253 µM), 0.613. Further, the relative viability turned out to be 0.755 with ALW-II-49-7 + Crizotinib (first compound 2.53 µM); 0.553 in the assay with ALW-II-49-7 + Crizotinib (first compound 8 µM); 0.459 with Dasatinib + OSI-027 (first compound 0.005 µM); 0.375 with Dasatinib + OSI-027 (first compound 0.01581 µM); 0.413 with Dasatinib + OSI-027 (first compound 0.05 µM); 0.329 with Dasatinib + OSI-027 (first compound 0.1581 µM). Also, the relative viability with Dasatinib + OSI-027 (first compound 0.5 µM) was 0.264.
